# Where two headings read alike, the source gives them in different places.
# What was measured:
# SKOV-3 cells [1] = assay: ROS production (H2DCFDA), SKOV-3; assay type: cell-based, human; conditions: 24 h, 10, 50, 100 μM tested
# Experimental: ROS production was assessed in cells probed with a fluorescent dye, 2′,7′-dichlorodihydrofluorescein diacetate (H2DCFDA; 5 μM) (Molecular Probes, Eugene, USA) for 45 min at 37°C. Fluorescence intensity in cell lysates was monitored in a Victor2 spectrofluorometer with excitation at 485 nm and emission at 535 nm.
# HPMCs = assay: Cell proliferation (CFDA SE), HPMCs; assay type: cell-based, human; conditions: 24 h, percentage of control cells
# Experimental: (§1) Cell proliferative potential was determined using Cell Proliferation Kit I (PromoKine, Heidelberg, Germany) according to the manufacturer's instructions. In brief, cells were probed for 15 min with 5-(and 6)-carboxyfluorescein diacetate, a succinimidyl ester (CFDA SE; 2 μM) which diffuses into cells, covalently binds to proteins, and becomes fluorescent upon its hydrolysis by intracellular esterases. The fluorescence emitted by the cells (the dye is inherited by the daughter cells through successive divisions) was recorded using a Victor2 spectrofluorometer (Perkin-Elmer, Turku, Finland) with excitation at 435 nm and emission at 535 nm.
# SKOV-3 = assay: MTT viability assay, SKOV-3; assay type: cell-based; conditions: Homo sapiens; for IC50: SK-OV-3, 24 h
# Experimental: Cell viability was assessed with the MTT test and with lactate dehydrogenase (LDH) release assay. As per the MTT method, normal and cancer cells were seeded into 96-well plates at high density and allowed to attach overnight. Then they were incubated in a medium containing 1.25 mg/mL of the MTT salt [3-(4,5-dimethylthiazol-2-yl)-2,5-diphenyltetrazolium bromide] for 24 h at 37°C. The generated formazan was solubilized with 20% sodium dodecyl sulphate and 50% N,N-dimethylformamide. Absorbance of the converted dye was recorded at 595 nm with a reference wavelength of 690 nm.
# In order to examine the effect of 3,3′,4,4′-THS on the viability of ovarian cancer cells and to compare its activity with RVT, subconfluent cultures of A2780, OVCAR-3, and SKOV-3 cells were subjected to a wide range of stilbene concentrations (0–500 μM) for 24 h; then MTT and LDH release assays were performed.
# A2780 cells = assay: Apoptosis (Hoechst 33258), A2780; assay type: cell-based, human; conditions: 24 h, 10, 50, 100 μM tested
# Experimental: (§2) Identification of apoptosis was based on the presence of DNA condensation in cells stained with a fluorescent dye, Hoechst 33258 (Molecular Probes, Eugene, OR). Cells were grown on Lab-Tek Chamber Slides (Nunc, Roskilde, Denmark), fixed with 4% formaldehyde for 10 min and washed twice with PBS. Then the cells were incubated with Hoechst 33258 (0.1 μg/mL) for 5 min in the dark. After washing with PBS, stained nuclei were observed and counted under a Zeiss Axio Observer D1 fluorescence microscope (Carl Zeiss, Jena, Germany). The activity of caspases 3, 8, and 9 was quantified in the cell lysates using specific colorimetric kits (Abcam, Cambridge, UK) according to the manufacturer's instructions.
# p38 MAPK [2] = assay: p38 MAPK activation (FACE ELISA), OVCAR-3; assay type: cell-based, human; conditions: 24 h, 10, 50, 100 μM tested
# Experimental: (§3) Activation of p38 MAPK was examined using the Fast Activated Cell-Based ELISA (FACE) p38 kit (Active Motif) according to the manufacturer's instructions. In brief, cells were fixed with 4% formaldehyde and incubated with a primary antibody that recognizes either phosphorylated p38 or total p38 overnight at 4°C. Then the cells were washed and incubated with a secondary HRP-conjugated antibody for 1 h at room temperature. The color reaction that developed was read using a spectrofluorometer at 450 nm wavelength.
# (§4) The results were expressed as a ratio of phosphorylated to total p38 activity.
# OVCAR-3 cells [3] = assay: Cell proliferation (CFDA SE), OVCAR-3; assay type: cell-based, human; conditions: low-density cultures, 24 h, 10, 50, 100 μM tested
# Experimental: as §1
# catalase (CAT) [4] = assay: CAT activity, A2780; assay type: cell-based, human; conditions: 24 h, 10, 50, 100 μM tested
# Experimental: (§5) Total activity of superoxide dismutase (SOD) was measured in cell lysates with a commercially available kit (R&D Systems Europe, Abingdon, UK), while the activity of catalase (CAT) was estimated by using the OxiSelect Catalase Activity Assay Kit (Cell Biolabs Inc., San Diego, CA, USA). Both assays were performed according to the manufacturer's instructions.
# p38 MAPK [5] = assay: p38 MAPK activation (FACE ELISA), SKOV-3; assay type: cell-based, human; conditions: 24 h, 10, 50, 100 μM tested
# Experimental: as §3, §4
# catalase (CAT) [6] = assay: CAT activity, HPMCs; assay type: cell-based, human; conditions: 24 h, percentage of control cells
# Experimental: as §5
# SKOV-3 cells [7] = assay: SA-β-Gal activity (senescence), SKOV-3; assay type: cell-based, human; conditions: 24 h, 10, 50, 100 μM tested
# Experimental: The activity of SA-β-Gal in the cell extracts was quantified by measuring the rate of conversion of 4-methylumbelliferyl-β-D-galactopyranoside to 4-methylumbelliferone, as described in [19]. In order to visualize expression of the enzyme in the cancer cell cytoplasm, cytochemical staining for SA-β-Gal was performed according to Dimri et al..
# OVCAR-3 cells [8] = assay: Oxidative DNA damage (8-OH-dG immunoassay), OVCAR-3; assay type: cell-based, human; conditions: 24 h, 10, 50, 100 μM tested
# Experimental: Oxidative DNA damage was assessed by measuring the 8-OH-dG concentration with a competitive immunoassay (Cell Biolabs Inc.), as per manufacturer's instructions. The efficiency of 8-OH-dG repair was estimated after cell recovery for 24 h in standard growth medium. In order to examine the activity of DNA glycosylase I, reverse transcription PCR was performed. RNA extraction was carried out using the RNA Bee (Tel-Test, Friendswood, Texas, USA) and purified according to the manufacturer's protocol. One microgram of RNA was reverse transcribed into cDNA with random hexamer primers, and cDNA was subjected to PCR. The profile of the replication cycles was denaturation at 94°C for 50 s, annealing at 58°C for 50 s, and polymerization at 72°C for 1 min. In each reaction, the expression of glyceraldehyde-3-phosphate dehydrogenase (GAPDH) served as the internal control. The primers used for PCR were as follows: hOGG1 forward, 5′-[…]-3′; hOGG1 reverse, 5′-TAGCCCGCCCTGTTCTTC-3′ designed to amplify a 551-bp region; GAPDH forward, 5′-CCATGGAGAAGGCTGGGG-3′; and GAPDH reverse 5′-[…]-3′ designed to amplify a 194-bp region (total number of cycles: 28). The PCR products were separated on 3% agarose gels stained with ethidium bromide and then visualized.
# caspase-3 = assay: Caspase-3 activity in ovarian cancer cell lysates; assay type: cell-based, human; conditions: ovarian cancer cells (A2780, OVCAR-3, SKOV-3); 24 h
# Experimental: as §2
# [9] = CalcuSyn, read-out: IC50, MTT assay
IC50 (SKOV-3; [9]) [µM],IC50 (SKOV-3; read-out: IC50 (range over MTT and LDH release assays)) [µM],Structure (SMILES),"generation of ROS, effect in words (SKOV-3 cells [1])",Proliferation (HPMCs; 10 μM),Proliferation (HPMCs; 50 μM) [%],Proliferation (HPMCs; 100 μM) [%],"viability at 10 µM (SKOV-3; SK-OV-3, 10 μM, 24 h, percentage of control cells) [%]","viability at 50 µM (SKOV-3; SK-OV-3, 50 μM, 24 h, percentage of control cells) [%]","viability at 100 µM (SKOV-3; SK-OV-3, 100 μM, 24 h, percentage of control cells) [%]","incidence of apoptosis (rise in percentage of death cells), effect in words (A2780 cells)","p38 MAPK activity (phosphorylated/total), effect in words (p38 MAPK [2])","proliferation, effect in words (OVCAR-3 cells [3])","CAT activity, effect in words (catalase (CAT) [4])","p38 MAPK activity (phosphorylated/total), effect in words (p38 MAPK [5])",CAT (catalase (CAT) [6]; 10 μM),CAT (catalase (CAT) [6]; 50 μM),CAT (catalase (CAT) [6]; 100 μM),"SA-β-Gal activity (senescence), effect in words (SKOV-3 cells [7])","concentration of 8-OH-dG (oxidative DNA damage), effect in words (OVCAR-3 cells [8])","caspase-3 activity, effect in words (caspase-3)"
8,8 to 10,"Oc1ccc(/C=C/c2ccc(O)c(O)c2)cc1O [3,3′,4,4′-THS, 3,3′,4,4′-tetrahydroxy-trans-stilbene]",remarkably stronger,141 ± 3^∗# %,103 ± 1,102 ± 2,40 ± 2,39 ± 4,35 ± 2,evident starting from the lowest concentration of 10 μM,exerted upregulatory activity at 50 and 100 μM,evident at as low a concentration as 10 μM,did not change CAT activity,exerted upregulatory activity at 50 and 100 μM,112 ± 2^∗# %,123 ± 4^∗# %,154 ± 1^∗# %,significantly greater than those of RVT at each concentration,increasing the concentration of 8-OH-dG in the OVCAR-3 and SKOV-3 cells starting from a dose of 10 μM,increased the activity of the same caspases as RVT did
380,–,"Oc1ccc(/C=C/c2cc(O)cc(O)c2)cc1 [RVT, 3,4′,5-trihydroxy-trans-stilbene, reference compound]",stimulated the release of ROS,99 ± 3%,103 ± 4,102 ± 2,–,–,–,exhibiting its impact at concentrations of 50 and 100 μM for the A2780 and SKOV-3 cells,failed to activate p38 MAPK,effectively reduced the expandability,"stimulated the enzyme at 10 μM in the OVCAR-3 cells, at 50 μM in the A2780, OVCAR-3, and SKOV-3 cells, and at 100 μM in the OVCAR-3 and SKOV-3 cells",failed to activate p38 MAPK,101 ± 1%,103 ± 4%,118 ± 3^∗ %,cellular senescence was elicited,evident only at 100 μM,"activated caspases 9 and 3, and this activity was evident at 50 and 100 μM"

# — article PMC4502315, “High Potency of a Novel Resveratrol Derivative, 3,3′,4,4′-Tetrahydroxy-trans-stilbene, against Ovarian Cancer Is Associated with an Oxidative Stress-Mediated Imbalance between DNA Damage Accumulation and Repair” (Oxidative Medicine and Cellular Longevity, 2015)
